Source: patent US7064112B1, “Pharmaceutical compositions comprising an adenosine receptor agonist or antagonist” (Can-Fite Biopharma Ltd., priority 1999, dated 2006)

Columns and labels:
[1] = Weight of nude mice treated with 5-FU and/or Cl-IB-MECA; assay type: in vivo, nude mice (BALB/C origin); conditions: FIG. 11; for weight of the mice as compared to control: day 7, 10 and 14, 5-FU 30 mg/kg i.p. five days, or Cl-IB-MECA 6 μg/kg oral every second day, alone
[2] = test system: HCT-116 human colon cancer cells; experiment: HCT-116 human colon carcinoma tumor growth in nude mice; assay type: in vivo; conditions: for tumor growth (tumor size), combined therapy experiment: 5-FU 30 mg/kg i.p. 5 days, Cl-IB-MECA 5 μg/kg oral every other day, FIGS. 15 and 16
Description: Tumors were established by subcutaneous injection of 1×10^6 HCT-116 human colon cancer cells to nude mice (BALB/C origin) (Harlan, Jerusalem, Israel). […] Mice that were treated with the vehicle only (PBS). Each group consisted of 10 mice. Tumor growth rate was determined by measuring two orthogonal diameters of each tumor twice a week, and the tumor size was estimated according to the following formula: π/6[D1D2]. The results are depicted in FIG. 14. […] 1×10^6 HCT-116 cells were injected subcutaneously to nude mice. One day later, 5-FU (30 mg/kg body weight, in 0.2 ml PBS) was intraperitoneally injected and subsequently in 4 additional consecutive days. […] Mice that were treated either with the vehicle only (PBS) or with 5-FU served as control. Each group consisted of 10 mice. Tumor growth rate was determined by measuring two orthogonal diameters of each tumor twice a week, and the tumor size was estimated according to the following formula: π/6[D1D2].

[3] = test system: Nb2-11C rat lymphoma cells; experiment: Nb2-11C lymphoma cell growth, cell count assay; assay type: cell-based; conditions: for growth inhibition of Nb2-11C lymphoma cells by receptor agonists: 0.01 μM agonist, 48 hours, FIG. 5A; for effect of receptor antagonist on the effect of adenosine on proliferation of Nb2-11C cells: 0.1 μM antagonist in combination with adenosine 25 μM, FIG. 5B
Description: Nb2-11C rat lymphoma cells (1.2×10^4 cells/ml) were incubated for 48 hours in 96 well microtiter plates with 1 ml RPMI medium containing 5% fetal bovine serum. Either 25 μM adenosine, 0.01 μM of an adenosine receptor agonists (CPA, an A1RAg; DPMA, an A2RAg or IB-MECA, an A3RAg) or 0.1 μM of an adenosine receptor antagonists (DPCPX, an A1RAn; DMPX, an A2RAn; or MRS-1220, an A3RAn) in combination with adenosine (25 μM) was added.
Cultures containing cells suspended in RPMI medium with 5% FBS served as controls for the above detailed experiment. Extent of cell proliferation was measured by a cell count assay.
Briefly, Nb2-11C lymphoma or bone marrow cells were incubated in the presence of either adenosine, or IB-MECA.

[4] = test system: bone marrow cells; experiment: Bone marrow cell proliferation, [3H]-thymidine incorporation assay; assay type: cell-based, C57BL/6J or ICR mice; conditions: for reduction of the increase in bone marrow cell proliferation as compared to adenosine alone: antagonist in combination with adenosine
Description: Bone marrow cells derived from the femur of C57BL/6J mice were used. The cells were prepared as previously described.
For this purpose, bone marrow cells obtained from the femur of C57BL/6J or ICR mice were first disaggregated by passing through a 25 G needle. Then, the cells (3×10^5 cells/well, in 96 microtiter plates) were incubated with RPMI medium containing 10% fetal bovine serum (FBS) in the presence of adenosine (25 μM). Adenosine or agonists to the A1 and A3 adenosine receptors—CPA (an A1RAg, 0.01 μM), CCPA (an A1RAg, 0.01 μM), or IB-MECA (an A3RAg, 0.01 μM), were added to the bone marrow cultures in the absence of adenosine; an A1 adenosine receptor antagonist, DPCPX (0.1 μM), was added to a bone marrow culture in the presence of adenosine (25 μM).
Cultures containing cells suspended in RPMI medium and 5% FBS served as the control for the above detailed experiment.
[^3H]-Thymidine incorporation assay was used to evaluate the proliferation of the bone marrow cells. For this purpose, after 30 hours of incubation, each well was pulsed with 1 μCi [^3H]-Thymidine. After a total of 48 hours of incubation, the cells were harvested and the [^3H]-Thymidine uptake was determined in an LKB liquid scintillation counter (LKB, Piscataway, N.J., USA).
Cell proliferation was evaluated as described above.
The cumulative effect on the proliferation of bone marrow cells, when using a combination of an A1RAgm1 A3RAg, (CPA and IB-MECA) was evaluated. Cells, after being disaggregated, were incubated in the presence of either adenosine (25 μM), CPA (0.01 μM), IB-MECA (0.01 μM) or a combination of IB-MECA and CPA (each in a concentration of 0.01 μM) and further treated as described above.
In order to compare the effect of adenosine receptor antagonist on the proliferation of bone marrow cells, following the same methodology described above, cells were incubated with adenosine alone or in combination with either DMPX (an A2RAn), DPCPX (an A1RAn), MRS-1220 (an A3RAn) or with a combination of DPCPX and MRS-1220.
Cells pre-treated as described above, were incubated at different concentrations of IB-MECA (1 μM, 0.1 μM or 0.01 μM).
Bone marrow cells (3×10^6 cell/ml) were incubated in wells of 96 microtiter plates. […] Cell proliferation was measured by [^3H]-thymidine incorporation assay.
B-16 melanoma cells (5×10^5 cells/ml) and bone marrow cells (3×10^6 cells/ml) were incubated in wells of 96 microtiter plate. […] Cell proliferation was measured by the [^3H]-thymidine incorporation assay mentioned before.
Murine bone marrow cells were cultured as described above. […] The antagonist was added at a concentration of 10 nM.

[5] = test system: B-16 melanoma cells; experiment: B-16 melanoma cell proliferation, [3H]-thymidine incorporation assay; assay type: cell-based, Murine; conditions: FIG. 18
Description: B-16 melanoma cells (5×10^5 cells/ml) and bone marrow cells (3×10^6 cells/ml) were incubated in wells of 96 microtiter plate. The culture consisted of RPMI medium supplemented with 10% FTS: […] Cell proliferation was measured by the [^3H]-thymidine incorporation assay mentioned before.

[6] = test system: peripheral blood leukocytes and neutrophils; conditions: for total white blood cell count after cyclophosphamide: i.p. adenosine 25 μg/kg or IB-MECA 3 or 6 μg/kg at 48 and 72 hours, FIG. 10A
Description: A further experiment was conducted in order to evaluate the chemoprotective effect of A3RAg. Mice were treated with cyclophosphamide (50 mg/kg body weight in 0.3 ml PBS). After 48 and 72 hours from administration of the cytotoxic drug, the mice were injected i.p. with adenosine (25 μg/kg body weight) or with IB-MECA (3 or 6 μg/kg body weight in 0.2 ml PBS). The number of white blood cells (WBC) and neutrophils was tested.

[7] = test system: white blood cells and bone marrow nucleated cells; experiment: Doxorubicin-induced myelotoxicity in ICR mice; assay type: in vivo; conditions: doxorubicin 10 mg/kg i.p., Cl-IB-MECA 6 μg/kg oral at 24, 48, 72 hours
Description: ICR mice were treated with doxorubicin (injection of 10 mg/kg i.p. in 0.5 ml PBS). […] At 72 hours, 96 hours, 120 hours and 144 hours, the mice were sacrificed and blood samples were withdrawn. In addition, bone marrow cells were aspirated from the femur of the mice and a cell count of nucleated cells from this aspirated preparation was made, following staining of the preparation with Coomassie Blue.

[8] = test system: white blood cells (WBC); conditions: CYP 50 mg/kg i.p.; blood 124 hours after chemotherapy; FIG. 13
Description: Each group consisted of 10 mice and the experiment was repeated twice.
The CYP was injected intraperitoneally in 0.2 ml of PBS which served as the carrier.
Anti-G-CSF antibodies were intravenously injected (in 0.2 ml PBS) 72 hours following the administration of the chemotherapeutic drugs.
Blood samples were withdrawn 124 hours following chemotherapy. White blood cells (WBC) counts were made in a Coulter counter and differential cell counts were carried on smear preparations stained with May-Grundvald-Giemsa solution.

## O=c1[nH]cc(F)c(=O)[nH]1 [5-FU, 5-fluoro-uracyl, reference compound]
[1]
  weight of the mice as compared to control: profound effect on the weight of the mice
[2]
  tumor growth (tumor size), combined therapy experiment: marked inhibition of tumor growth

## OC[C@H]1O[C@@H](n2cnc3c(NC4CCCC4)ncnc32)[C@H](O)[C@@H]1O [CPA, N-cyclopentyladenosine]
[3]
  growth inhibition of Nb2-11C lymphoma cells by receptor agonists: No growth inhibition

## CNC(=O)[C@H]1O[C@@H](n2cnc3c(NCc4cccc(I)c4)nc(Cl)nc32)[C@H](O)[C@@H]1O [Cl-IB-MECA]
[4]; 1 or 10 nM, FIG. 20
  effect on proliferation of bone marrow cells: dose dependent
[4]; Cl-IB-MECA 0.01 μM or 0.1 μM, FIG. 18
  proliferation of bone marrow cells: proliferation stimulation effect
[5]; Cl-IB-MECA 0.01 μM or 0.1 μM
  proliferation of B-16 melanoma cells: inhibitory effect
[6]; mouse, in vivo
  white blood cells and neutrophils after chemotherapy, experiment with Cl-IB-MECA: chemoprotective activity
[1]; Cl-IB-MECA 6 μg/kg oral administered together with 5-FU 30 mg/kg i.p.
  5-FU-induced weight loss: prevented some of this weight loss
[1]
  weight of the mice as compared to control: did essentially not give rise to any weight loss
[7]; FIG. 12A
  number of peripheral white blood cells after doxorubicin: marked increase
[7]; FIG. 12B
  number of bone marrow nucleated cells after doxorubicin: marked increase
[2]
  tumor growth (tumor size), combined therapy experiment: marked inhibition of tumor growth
[2]; Cl-IB-MECA 6 μg/kg oral every other day, FIG. 14
  tumor growth (tumor size): marked inhibition of tumor growth

## C#CCn1c(=O)c2c(ncn2C)n(C)c1=O [DMPX, 3,7-dimethyl-1-propargyl-xantane, reference compound]
[4]; compared to adenosine alone, FIG. 3B
  proliferation of bone marrow cells, adenosine in combination with receptor antagonist: increased proliferation of bone marrow cells which even exceeded that of adenosine alone
[3]
  effect of receptor antagonist on the effect of adenosine on proliferation of Nb2-11C cells: minor, however still significant effect

## CCCn1c(=O)c2[nH]c(C3CCCC3)nc2n(CCC)c1=O [DPCPX, 1,3-dipropyl-8-cyclopentylxanthine, reference compound]
[4]; FIG. 3B
  reduction of the increase in bone marrow cell proliferation as compared to adenosine alone: about 50%
[3]
  effect of receptor antagonist on the effect of adenosine on proliferation of Nb2-11C cells: essentially no effect

## COc1cc(OC)cc(C(CNc2ncnc3c2ncn3[C@@H]2O[C@H](CO)[C@@H](O)[C@H]2O)c2ccccc2C)c1 (stereo partly drawn) [DPMA, N^6-[2-(3,5-dimethoxyphenyl)-2-(2-methylphenyl)-ethyl] adenosine]
[3]
  growth inhibition of Nb2-11C lymphoma cells by receptor agonists: lower growth inhibition

## CNC(=O)[C@H]1O[C@@H](n2cnc3c(NCc4cccc(I)c4)ncnc32)[C@H](O)[C@@H]1O [IB-MECA, 1-deoxy-1-{6-[({3-iodophenyl}methyl)amino]-9H-purine-9-yl}-N-methyl-β-D-ribofuranuronamide]
[4]; 1 or 10 nM, FIG. 20
  effect on proliferation of bone marrow cells: dose dependent
[4]; FIG. 7B
  effect on proliferation of bone marrow cells: stimulating the proliferation of bone marrow cells
[4]; IB-MECA 1 μM, 0.1 μM or 0.01 μM
  stimulation of bone marrow cell proliferation: stimulates proliferation of bone marrow in a dose dependent manner
[3]
  growth inhibition of Nb2-11C lymphoma cells by receptor agonists: markedly inhibited
[3]; FIG. 7A
  effect on growth of tumor cells (Nb2-11C lymphoma): inhibiting the growth of tumor cells
[6]; cyclophosphamide 50 mg/kg, IB-MECA i.p. at 48 and 72 hours
  complete recovery of total white blood cell count after: 168 h
[6]; cyclophosphamide 50 mg/kg
  total white blood cell count after cyclophosphamide: restored

## O=C(Cc1ccccc1)Nc1nc2ccc(Cl)cc2c2nc(-c3ccco3)nn12 [MRS-1220, 9-chloro-2-(2-furanyl)-5-[(phenylacetyl)amino] [1,2,4,]-triazolo[1,5-c]quinazoline]
[4]; FIG. 3B
  reduction of the increase in bone marrow cell proliferation as compared to adenosine alone: about 50%
[3]
  effect of receptor antagonist on the effect of adenosine on proliferation of Nb2-11C cells: substantially abolished
[3]; FIGS. 7A–7B, tumor and normal cells
  therapeutic effect of A3RAg (IB-MECA) when A3 receptor antagonist employed: reversed

## CCCOC(=O)c1c(-c2ccccc2)nc(CC)c(C(=O)SCC)c1CCC [MRS-1523, reference compound]
[4]; with Cl-IB-MECA 0.01 μM or 0.1 μM, FIG. 18
  proliferation of bone marrow cells in the presence of MRS-1523: unchanged versus control
[5]; with Cl-IB-MECA 0.01 μM or 0.1 μM
  proliferation of B-16 melanoma cells in the presence of MRS-1523: unchanged versus control

## Nc1ncnc2c1ncn2[C@@H]1O[C@H](CO)[C@@H](O)[C@H]1O [adenosine]
[6]; cyclophosphamide 50 mg/kg
  total white blood cell count after cyclophosphamide: restored

## O=P1(N(CCCl)CCCl)NCCCO1 (stereo not drawn) [cyclophosphamide, Cyclophosphamide, reference compound]
[6]; cyclophosphamide 50 mg/kg only
  number of peripheral blood leukocytes and neutrophils, cytotoxic drug only: decline in the number of peripheral blood leukocytes and neutrophils
[8]
  number of peripheral blood WBC, cyclophosphamide only: decline in the number of peripheral blood WBC
